According to ChEMBL document CHEMBL1201862, “PubChem BioAssay data set” (2004):
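All cell lines were grown in 96-well plates and treated with compound for 48 hours. GI50 = concentration required for 50% inhibition of growth.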 Calls of active or inactive are those of the source. No stated cut-off is given here; in the data, active = GI50 up to about 1.1 µM and inactive = higher.

Columns and labels:
Assay in all cases: NCI tumour cell line growth inhibition, 48 h
[1] = tested on: DLD-1
[2] = tested on: RPMI-8226
[3] = tested on: HT-29
[4] = tested on: SK-MEL-28
[5] = tested on: SN12C
[6] = tested on: COLO 205
[7] = tested on: SF-295
[8] = tested on: HCT-116
[9] = tested on: SW-620
[10] = tested on: SF-539
[11] = tested on: HL-60
[12] = tested on: EKVX
[13] = tested on: HOP-92
[14] = tested on: OVCAR-4
[15] = tested on: M14
[16] = tested on: KM12
[17] = tested on: RXF 393
[18] = tested on: TK-10
[19] = tested on: SF-268
[20] = tested on: A498
[21] = tested on: SK-MEL-2
[22] = tested on: K562
[23] = tested on: OVCAR-3
[24] = tested on: SNB-19
[25] = tested on: ACHN
[26] = tested on: XF498
[27] = tested on: A549
[28] = tested on: NCI-H522
[29] = tested on: NCI-H23
[30] = tested on: M19-MEL
[31] = tested on: SK-OV-3
[32] = tested on: CCRF-CEM
[33] = tested on: RXF 631
[34] = tested on: CAKI-1
[35] = tested on: 786-0
[36] = tested on: UACC-62
[37] = tested on: HOP-62
[38] = tested on: OVCAR-5
[39] = tested on: SNB-75
[40] = tested on: LXFL 529
[41] = tested on: IGROV-1
[42] = tested on: DMS-114
[43] = tested on: Malme-3M
[44] = tested on: KM-20L2
[45] = tested on: LOX IMVI
[46] = tested on: UACC-257
[47] = tested on: NCI-H226
[48] = tested on: HCT-15
[49] = tested on: SNB-78
[50] = tested on: OVCAR-8
[51] = tested on: SR
[52] = tested on: MOLT-4
[53] = tested on: HCC 2998
[54] = tested on: UO-31
[55] = tested on: DMS-273
[56] = tested on: NCI-H460
[57] = tested on: SK-MEL-5
[58] = tested on: U-251

NC(=O)N/N=C/C(/C=N/NC(N)=O)[N+](=O)[O-]
GI50 [1]: > 100 µM (inactive)
GI50 [2]: > 100 µM (inactive)
GI50 [3]: > 100 µM (inactive)
GI50 [4]: > 100 µM (inactive)
GI50 [5]: > 100 µM (inactive)
GI50 [6]: > 100 µM (inactive)
GI50 [7]: > 100 µM (inactive)
GI50 [8]: > 100 µM (inactive)
GI50 [9]: > 100 µM (inactive)
GI50 [10]: > 100 µM (inactive)
GI50 [11]: > 100 µM (inactive)
GI50 [12]: > 100 µM (inactive)
GI50 [13]: > 100 µM (inactive)
GI50 [14]: > 100 µM (inactive)
GI50 [15]: > 100 µM (inactive)
GI50 [16]: > 100 µM (inactive)
GI50 [17]: > 100 µM (inactive)
GI50 [18]: > 100 µM (inactive)
GI50 [19]: > 100 µM (inactive)
GI50 [20]: > 100 µM (inactive)
GI50 [21]: > 100 µM (inactive)
GI50 [22]: > 100 µM (inactive)
GI50 [23]: > 100 µM (inactive)
GI50 [24]: > 100 µM (inactive)
GI50 [25]: > 100 µM (inactive)
GI50 [26]: > 100 µM (inactive)
GI50 [27]: > 100 µM (inactive)
GI50 [28]: > 100 µM (inactive)
GI50 [29]: > 100 µM (inactive)
GI50 [30]: > 100 µM (inactive)
GI50 [31]: > 100 µM (inactive)
GI50 [32]: > 100 µM (inactive)
GI50 [33]: > 100 µM (inactive)
GI50 [34]: > 100 µM (inactive)
GI50 [35]: > 100 µM (inactive)
GI50 [36]: > 100 µM (inactive)
GI50 [37]: > 100 µM (inactive)
GI50 [38]: > 100 µM (inactive)
GI50 [39]: > 100 µM (inactive)
GI50 [40]: > 100 µM (inactive)
GI50 [41]: > 100 µM (inactive)
GI50 [42]: > 100 µM (inactive)
GI50 [43]: > 100 µM (inactive)
GI50 [44]: > 100 µM (inactive)
GI50 [45]: > 100 µM (inactive)
GI50 [46]: > 100 µM (inactive)
GI50 [47]: > 100 µM (inactive)

CCCNC1=C(C(=O)OCC)C(=O)CO1
GI50 [48]: > 100 µM
GI50 [1]: > 100 µM (inactive)
GI50 [2]: > 100 µM (inactive)
GI50 [3]: > 100 µM (inactive)
GI50 [4]: > 100 µM (inactive)
GI50 [49]: > 100 µM (inactive)
GI50 [5]: > 100 µM (inactive)
GI50 [7]: > 100 µM (inactive)
GI50 [8]: > 100 µM (inactive)
GI50 [9]: > 100 µM (inactive)
GI50 [50]: > 100 µM (inactive)
GI50 [51]: > 100 µM (inactive)
GI50 [10]: > 100 µM (inactive)
GI50 [52]: > 100 µM (inactive)
GI50 [53]: > 100 µM (inactive)
GI50 [11]: > 100 µM (inactive)
GI50 [12]: > 100 µM (inactive)
GI50 [13]: > 100 µM (inactive)
GI50 [14]: > 100 µM (inactive)
GI50 [15]: > 100 µM (inactive)
GI50 [54]: > 100 µM (inactive)
GI50 [17]: > 100 µM (inactive)
GI50 [18]: > 100 µM (inactive)
GI50 [19]: > 100 µM (inactive)
GI50 [20]: > 100 µM (inactive)
GI50 [21]: > 100 µM (inactive)
GI50 [22]: > 100 µM (inactive)
GI50 [23]: > 100 µM (inactive)
GI50 [24]: > 100 µM (inactive)
GI50 [25]: > 100 µM (inactive)
GI50 [26]: > 100 µM (inactive)
GI50 [27]: > 100 µM (inactive)
GI50 [29]: > 100 µM (inactive)
GI50 [30]: > 100 µM (inactive)
GI50 [55]: > 100 µM (inactive)
GI50 [32]: > 100 µM (inactive)
GI50 [33]: > 100 µM (inactive)
GI50 [34]: > 100 µM (inactive)
GI50 [35]: > 100 µM (inactive)
GI50 [36]: > 100 µM (inactive)
GI50 [56]: > 100 µM (inactive)
GI50 [38]: > 100 µM (inactive)
GI50 [39]: > 100 µM (inactive)
GI50 [40]: > 100 µM (inactive)
GI50 [41]: > 100 µM (inactive)
GI50 [57]: > 100 µM (inactive)
GI50 [42]: > 100 µM (inactive)
GI50 [58]: > 100 µM (inactive)
GI50 [43]: > 100 µM (inactive)
GI50 [44]: > 100 µM (inactive)
GI50 [45]: > 100 µM (inactive)
GI50 [46]: > 100 µM (inactive)
GI50 [47]: > 100 µM (inactive)
